Data set [1] deals with Tyrosine-protein kinase BTK (Homo sapiens, UniProt Q06187). Briefly: Inhibition of BTK (unknown origin) using ATP and Y5 Sox15 substrate mix incubated for 30 mins by fluorescence based assay.
Data set [2] in a line: Inhibition of human PDE isoforms.
For data set [3], the target named is cAMP and cAMP-inhibited cGMP 3',5'-cyclic phosphodiesterase 10A (Homo sapiens, UniProt Q9Y233). Briefly: Inhibition of human PDE10A.
For data set [4], the system named is Rattus norvegicus. Nature of the data set: Binding affinity to 5HT1A receptor in Sprague-Dawley rat at 0.3 to 10 mg/kg, po after 2 to 8 hrs by PET imaging method. Format: functional, organism-based. The arrangement: route oral.
The subject of data set [5] is Rattus norvegicus. Briefly: Induction of prolongation of micturition interval in orally dosed Sprague-Dawley rat model of 8-OH-DPAT induced overactive bladder by cystometric study. Particulars: po, read-out: MED. Format: functional.
Data set [6] deals with T1, Tyrosine-protein kinase ITK/TSK (Homo sapiens) (UniProt Q08881).
T1 sequence (whole entry): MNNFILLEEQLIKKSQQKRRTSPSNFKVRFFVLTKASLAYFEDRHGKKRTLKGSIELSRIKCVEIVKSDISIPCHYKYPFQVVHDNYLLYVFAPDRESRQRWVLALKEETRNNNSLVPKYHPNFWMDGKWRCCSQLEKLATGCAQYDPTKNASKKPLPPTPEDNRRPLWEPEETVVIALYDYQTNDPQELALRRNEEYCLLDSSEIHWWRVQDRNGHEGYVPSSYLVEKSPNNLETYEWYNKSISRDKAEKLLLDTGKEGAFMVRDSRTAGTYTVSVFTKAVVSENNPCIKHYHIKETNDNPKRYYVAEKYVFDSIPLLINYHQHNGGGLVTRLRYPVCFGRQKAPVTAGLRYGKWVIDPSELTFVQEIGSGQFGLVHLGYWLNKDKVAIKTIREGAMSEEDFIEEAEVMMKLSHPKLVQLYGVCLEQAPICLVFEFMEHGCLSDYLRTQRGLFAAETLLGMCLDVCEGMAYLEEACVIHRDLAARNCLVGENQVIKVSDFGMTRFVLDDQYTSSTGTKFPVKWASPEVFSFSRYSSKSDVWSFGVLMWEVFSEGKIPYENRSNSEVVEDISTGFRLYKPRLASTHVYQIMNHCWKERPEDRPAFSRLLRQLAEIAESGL
Nature of the data set: Inhibition of human ITK assessed as ratio of Kinact to Ki.

The target of data set [7] is T2, Tyrosine-protein kinase ITK/TSK (Homo sapiens, UniProt Q08881).
T2 sequence (Q08881 whole entry): T1 sequence (whole entry)
Nature of the data set: Inhibition of human ITK.

The subject of data set [8] is Lung. Nature of the data set: Drug level in rat lung at 2.3 mg/kg dosed via inhalation measured post perfusion. Format: ADME, organism-based. The arrangement: dose 2.3 mg/kg. As to conditions: in vivo, inhaled_or_intranasal, read-out: Drug uptake.
For data set [9], the system named is Lung. Briefly: Drug level in rat lung at 2.3 mg/kg dosed via inhalation measured post cell suspension. The arrangement: dose 2.3 mg/kg. The data set is classed as ADME, organism-based. Particulars: in vivo, inhaled_or_intranasal, read-out: Drug uptake.

Structures are written as SMILES.

Tyrosine-protein kinase BTK, sequence (Q06187 whole entry, canonical isoform): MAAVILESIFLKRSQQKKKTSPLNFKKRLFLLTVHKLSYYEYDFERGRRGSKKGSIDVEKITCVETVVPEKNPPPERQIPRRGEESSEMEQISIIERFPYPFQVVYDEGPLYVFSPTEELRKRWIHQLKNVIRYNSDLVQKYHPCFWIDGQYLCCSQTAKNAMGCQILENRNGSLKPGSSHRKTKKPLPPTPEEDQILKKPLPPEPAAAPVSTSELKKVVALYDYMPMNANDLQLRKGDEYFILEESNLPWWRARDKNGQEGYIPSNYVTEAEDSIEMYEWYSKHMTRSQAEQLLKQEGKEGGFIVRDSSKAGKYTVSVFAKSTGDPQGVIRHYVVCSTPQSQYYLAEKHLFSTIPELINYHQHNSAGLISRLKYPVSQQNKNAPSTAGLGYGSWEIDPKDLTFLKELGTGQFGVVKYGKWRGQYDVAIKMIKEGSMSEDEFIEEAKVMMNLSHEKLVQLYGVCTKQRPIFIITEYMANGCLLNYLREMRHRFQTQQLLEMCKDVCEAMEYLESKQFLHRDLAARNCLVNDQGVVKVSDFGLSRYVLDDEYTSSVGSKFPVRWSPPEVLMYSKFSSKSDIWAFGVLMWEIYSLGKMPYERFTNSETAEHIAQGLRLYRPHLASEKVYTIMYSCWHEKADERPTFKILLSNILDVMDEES
cAMP and cAMP-inhibited cGMP 3',5'-cyclic phosphodiesterase 10A, sequence (Q9Y233 whole entry): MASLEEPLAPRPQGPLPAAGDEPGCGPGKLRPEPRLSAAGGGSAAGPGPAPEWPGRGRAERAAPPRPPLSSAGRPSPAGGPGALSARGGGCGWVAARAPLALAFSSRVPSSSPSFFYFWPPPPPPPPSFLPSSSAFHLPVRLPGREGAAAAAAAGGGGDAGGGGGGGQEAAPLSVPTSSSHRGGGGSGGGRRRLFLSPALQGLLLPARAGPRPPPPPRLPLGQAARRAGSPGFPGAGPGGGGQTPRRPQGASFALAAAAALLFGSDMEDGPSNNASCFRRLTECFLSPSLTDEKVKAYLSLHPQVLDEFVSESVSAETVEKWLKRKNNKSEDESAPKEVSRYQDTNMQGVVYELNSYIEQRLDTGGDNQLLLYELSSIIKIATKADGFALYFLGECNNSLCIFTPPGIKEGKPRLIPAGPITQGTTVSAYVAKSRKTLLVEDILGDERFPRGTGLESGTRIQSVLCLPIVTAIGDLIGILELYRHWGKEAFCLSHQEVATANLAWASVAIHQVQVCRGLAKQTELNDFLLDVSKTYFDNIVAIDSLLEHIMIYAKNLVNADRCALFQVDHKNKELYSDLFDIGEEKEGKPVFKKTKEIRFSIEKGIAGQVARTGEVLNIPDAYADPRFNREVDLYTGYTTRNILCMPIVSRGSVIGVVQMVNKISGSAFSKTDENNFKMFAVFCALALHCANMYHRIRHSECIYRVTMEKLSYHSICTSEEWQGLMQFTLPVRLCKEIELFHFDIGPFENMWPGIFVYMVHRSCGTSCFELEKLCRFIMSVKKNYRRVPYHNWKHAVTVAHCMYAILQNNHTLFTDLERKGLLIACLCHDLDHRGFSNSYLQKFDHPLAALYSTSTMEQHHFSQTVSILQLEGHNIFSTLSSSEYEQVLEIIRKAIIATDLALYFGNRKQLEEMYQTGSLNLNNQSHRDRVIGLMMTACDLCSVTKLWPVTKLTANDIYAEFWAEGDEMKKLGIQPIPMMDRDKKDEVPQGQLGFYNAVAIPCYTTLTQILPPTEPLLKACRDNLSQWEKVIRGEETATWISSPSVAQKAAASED

Consider `C=CC(=O)Nc1cccc(N(C)c2nc(Nc3cccc(OCCCN(C)C(=O)CCCC(=O)NCCCOCCOCCOCCCNC(=O)CCCC[C@H]4SC[C@H]5NC(=O)N[C@H]54)c3)ncc2C)c1`, for which the half-maximal inhibitory concentration (IC50) (usually the concentration needed to halve the response being measured) in [1] amounted to 0.5 nM.

For the compound `Cc1nc2ccccc2nc1-c1cc2nc(N3CC[C@@H](F)C3)cc(N([11CH3])C3CCOCC3)n2n1`, the results for the IC50 in data set [2] and in data set [3] were more than 1000 nM and 0.06 nM, respectively.

In the case of `CNC(=O)c1ccc2ccn(C3CCN(CCc4c(OC)ccc5c4OC(C)(C)CC5=O)CC3)c2c1.O=C(O)/C=C/C(=O)O`, in the data set on Rattus norvegicus [4], the EC50 – broadly, the concentration giving half of the maximal effect – amounted to 5.4 nM. In the data set with Rattus norvegicus [5], the minimal effective dose worked out at 0.1 mg/kg.

With `C=CC(=O)N1CC[C@H](Nc2cc(CN[C@@H](C)C(C)(C)C)cc(Nc3nc4cccnc4s3)n2)C1`, the Ratio in [6] is 520000 M⁻¹ s⁻¹. In addition, half-maximal inhibition in [7] (IC50) was put at 5 nM. The concentration in the data set with Lung [8] is 6 µM; with Lung [9], 0.008 µM.

Values taken from ChEMBL document CHEMBL3397013, “Target engagement in lead generation” (Bioorg Med Chem Lett, 2015).
